Data reported in patent US20110053897A1 (IRM LLC, priority 2009, published 2011).
Where two headings read alike, the source gives them in different places.

Target: T1, Syk kinase (Homo sapiens, UniProt P43405)
T1 construct: purchased
Assay: Syk kinase inhibition, Caliper LabChip off-chip mobility-shift kinase assay
Format: biochemical
Conditions: read-out: Syk Enzyme IC50
How it was run: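 Purified Syk pre-incubated 15 min with compound in 100 mM HEPES pH 7.5, 1 mM DTT, 10 mM MgCl2 or MnCl2, 0.002% Brij-35, then 1.5 μM fluorescein peptide and ATP at apparent KM added; 1–1.5 h at room temperature, 4% DMSO, EDTA stop. Microfluidic mobility-shift product/substrate conversion gave % inhibition; IC50 from 12-point series (10–0.00003 μM) by 4-parameter fit.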

Row | Compound | IC50 (Caliper LabChip assay) [µM] | IC50 [µM]
1 | O=c1c2c(N[C@H]3CC[C@@H](O)CC3)nc(Nc3cnccn3)cc2ccn1C1CS(=O)(=O)C1 [compound 1010] | 0.01 | 
2 | CCn1ccc2cc(Nc3cnccn3)nc(N[C@@H]3CC[C@H](O)C3)c2c1=O [compound 427] |  | 0.0486
3 | Cc1ccnc(Nc2cc3cc[nH]c(=O)c3c(N[C@H](C)CO)n2)c1 [compound 295] |  | 0.02
4 | CCn1ccc2cc(Nc3cc(C)ccn3)nc(NC3CCS(=O)(=O)C3)c2c1=O (stereo not drawn) [compound 970] | 0.075 | 
5 | Cn1cc(-c2cc(Nc3cc4ccn(CCO)c(=O)c4c(NC(C)(C)C)n3)ncn2)cn1 [compound 636] | 0.237 | 
6 | COc1cncc(-c2cc3cc[nH]c(=O)c3c(Nc3ccc(C4CCN(CCC(=O)N(C)C)CC4)c(C)c3)n2)n1 [compound 159] |  | 0.038
7 | [2H]C([2H])([2H])n1ccc2cc(Nc3cc(C)ccn3)nc(NC(C)(C)CO)c2c1=O [compound 1047] | 0.0772 | 
8 | CNC(C)(C)C(=O)N1CCC(c2ccc(Nc3nc(-c4cncc(OC)n4)cc4cc[nH]c(=O)c34)cc2C)CC1 [compound 84] |  | 0.005
9 | CCn1ccc2cc(Nc3cc(C)ccn3)nc(N[C@@H]3CCC[C@H]3O)c2c1=O [compound 939] | 1.05 | 
10 | CC(C)(C)Nc1nc(Nc2cnccn2)cc2ccn(C3COC3)c(=O)c12 [compound 1014] | 0.12 | 
11 | CC(C)(C)Nc1nc(Nc2cnccn2)cc2ccn(CC(O)CO)c(=O)c12 (stereo not drawn) [compound 664, 8-(tert-butylamino)-2-(2,3-dihydroxypropyl)-6-(pyrazin-2-ylamino)-2,7-naphthyridin-1(2H)-one] | 0.007 | 
12 | COc1cncc(-c2cc3cc[nH]c(=O)c3c(Nc3ccc(C4CCN(C(C)C(=O)O)CC4)c(C)c3)n2)n1 (stereo not drawn) [compound 117] |  | 0.022
13 | Cc1ccnc(Nc2cc3ccn(CCN(C)C)c(=O)c3c(N[C@H]3CC[C@@H](O)CC3)n2)c1 [compound 386] |  | 0.049
14 | CC(C)n1ccc2cc(Nc3cnccn3)nc(N[C@H]3CC[C@@H](O)CC3)c2c1=O [compound 944] | 0.032 | 
15 | O=c1[nH]ccc2cc(Nc3ccc(CCN4CCOCC4)cn3)nc(Nc3ccc(N4CCOCC4)cc3)c12 [compound 568] |  | 0.549
16 | Cc1ccc(-c2cc3cc[nH]c(=O)c3c(Nc3ccc(C4CN(C)C4)cc3)n2)cn1 [compound 140] |  | 0.027
17 | C[C@@H](O)CNc1nc(Nc2cnccn2)cc2ccn(C)c(=O)c12 [compound 470] |  | 0.082
18 | CC[C@@H](CO)Nc1nc(Nc2cc(C)ccn2)cc2ccn(CC)c(=O)c12 [compound 597] | 0.081 | 
19 | CO/N=C(\C)c1cc2cc[nH]c(=O)c2c(Nc2ccc(C3CCN(C4CC4)CC3)c(C)c2)n1 [compound 237] |  | 0.407
20 | CCC(O)(CC)c1ccnc(Nc2cc3ccn(CCO)c(=O)c3c(NC(C)(C)C)n2)c1 [compound 708] | 0.595 | 
21 | CC(C)n1ccc2cc(-c3cnc(N)nc3)nc(N[C@H]3CC[C@@H](O)C3)c2c1=O [compound 1031] | 0.007 | 
22 | COc1ccc(Nc2cc3ccn(CCO)c(=O)c3c(NC(C)(C)C)n2)nc1 [Compound No. 606, 8-(tert-butylamino)-2-(2-hydroxyethyl)-6-(5-methoxypyridin-2-ylamino)-2,7-naphthyridin-1(2H)-one] | 0.793 | 
23 | CC(C)(C)Nc1nc(Nc2cc(N3CCC(CO)CC3)ccn2)cc2ccn(CCO)c(=O)c12 [compound 847] | 0.5 | 
24 | CCNC(=O)c1ccc(Nc2nc(Nc3cc(C)ccn3)cc3ccn(C)c(=O)c23)cc1 [compound 380] |  | 0.379
25 | COCC(C)Nc1nc(Nc2ccccn2)cc2cc[nH]c(=O)c12 (stereo not drawn) [compound 276] |  | 0.167

Row | Compound | IC50 (Caliper LabChip assay) [µM] | IC50 [µM]
26 | CC(C)Nc1nc(Nc2cc(N3CCC(O)CC3)ccn2)cc2ccn(CCO)c(=O)c12 [compound 852] | 0.3 | 
27 | NC(=O)Cn1ccc2cc(Nc3cnccn3)nc(N[C@H]3C[C@@H](CO)C3)c2c1=O [compound 747] | 0.017 | 
28 | CC(C)n1ccc2cc(Nc3cnccn3)nc(N[C@@H](C)CO)c2c1=O [compound 967] | 0.017 | 
29 | COc1cncc(-c2cc3cc[nH]c(=O)c3c(Nc3ccc(N4CC5(CNC5)C4)cc3)n2)n1 [compound 5] |  | 0.316
30 | CC1(Nc2nc(Nc3cc(C(C)(C)O)ccn3)cc3ccn(CC(N)=O)c(=O)c23)CCC1 [compound 722] | 0.155 | 
31 | Cc1ccnc(Nc2cc3ccn(C)c(=O)c3c(Nc3ccc(OCCN4CCOCC4)cc3)n2)c1 [compound 653] | 0.333 | 
32 | COCC(C)Nc1nc(-c2cnc(N)nc2)cc2cc[nH]c(=O)c12 (stereo not drawn) [compound 180] |  | 0.115
33 | CC(C)(C)Nc1nc(-c2cnc(N)nc2)cc2ccn(CCCCO)c(=O)c12 [compound 920] | 0.018 | 
34 | O=c1[nH]ccc2cc(Nc3cc(Cl)ccn3)nc(NC3CC3)c12 [compound 481] |  | 0.122
35 | CC1(Cn2ccc3cc(-c4cnc(N)nc4)nc(NC4CC(F)(F)C4)c3c2=O)COC1 [compound 758] | 0.09 | 
36 | CCn1ccc2cc(Nc3cnc(C)cn3)nc(N[C@H]3CC[C@@H](O)CC3)c2c1=O [compound 392] |  | 0.193
37 | CC[C@H](CO)Nc1nc(Nc2cc(C)ccn2)cc2ccn(CC)c(=O)c12 [compound 598] | 0.518 | 
38 | CCn1ccc2cc(Nc3cc(C)ccn3)nc(NC3CCC(C)(O)CC3)c2c1=O (stereo not drawn) [compound 950] | 0.053 | 
39 | Cn1ccc2cc(Nc3nccc(O)n3)nc(Nc3ccc(C(=O)N4CCOCC4)cc3)c2c1=O [compound 805] | 0.752 | 
40 | CC(C)Nc1nc(Nc2cnccn2)cc2ccn(C)c(=O)c12 [compound 347] |  | 0.057
41 | Cn1ccc2cc(Nc3cnccn3)nc(NC(C)(C)C)c2c1=O [compound 463] |  | 0.054
42 | CC(C)(C)Nc1nc(Nc2cc(-c3ccccn3)ccn2)cc2ccn(CCO)c(=O)c12 [compound 841] | 0.291 | 
43 | O=c1[nH]ccc2cc(Nc3ccccn3)nc(NC3CCOC3)c12 (stereo not drawn) [compound 287] |  | 0.148
44 | CC(C)Nc1nc(Nc2ccc(Cl)cn2)cc2cc[nH]c(=O)c12 [compound 560] |  | 0.611
45 | [2H][C@]1(O)CC[C@@H](Nc2nc(Nc3cnccn3)cc3ccn(CC)c(=O)c23)CC1 [compound 992] | 0.012 | 
46 | CCn1ccc2cc(Nc3cc(C)ccn3)nc(Nc3ccc(C(=O)NCCO)cc3)c2c1=O [compound 834] | 0.126 | 
47 | O=C(N1CC2CC(C1)c1cc(Nc3nc(-c4cnccn4)cc4cc[nH]c(=O)c34)ccc12)C(F)(F)F (stereo not drawn) [compound 97] |  | 2.5
48 | Cn1ccc2cc(Nc3ccc(C#N)cn3)nc(N)c2c1=O [compound 573] |  | 3.87
49 | Nc1ncc(-c2cc3cc[nH]c(=O)c3c(NC[C@@H](O)c3cccc(Cl)c3)n2)cn1 [compound 449] |  | 0.384
50 | Cc1ccnc(Nc2cc3ccn(C)c(=O)c3c(NC(C)(C)CO)n2)c1 [compound 499] |  | 0.031

Row | Compound | IC50 (Caliper LabChip assay) [µM] | IC50 [µM]
51 | Cc1[nH]ncc1-c1ccnc(Nc2cc3ccn(CCO)c(=O)c3c(NC(C)(C)C)n2)c1 [compound 855] | 0.244 | 
52 | CCN1CCN(c2n[nH]c3cc(Nc4nc(-c5cncnc5)cc5cc[nH]c(=O)c45)ccc23)CC1 [compound 199] |  | 0.02
53 | CC1(Nc2nc(-c3cnc(N)nc3)cc3ccn(CC4CCOCC4)c(=O)c23)CCC1 [compound 930] | 0.081 | 
54 | Cc1ccnc(Nc2cc3ccn(C)c(=O)c3c(Nc3cccc(C(N)=O)c3)n2)c1 [compound 507] |  | 0.136
55 | CCNC(=O)C(C)N1CCC(c2ccc(Nc3nc(-c4cncc(OC)n4)cc4cc[nH]c(=O)c34)cc2C)CC1 (stereo not drawn) [compound 120] |  | 0.023
56 | O=c1[nH]ccc2cc(-c3cnccn3)nc(Nc3ccc4c(c3)C3CNCC4C3)c12 (stereo not drawn) [compound 98] |  | 1.53
57 | NC(=O)Cn1ccc2cc(Nc3cnccn3)nc(NC3CCCC3)c2c1=O [compound 752] | 0.018 | 
58 | NC(=O)Cn1ccc2cc(Nc3cnccn3)nc(NC3CCC3)c2c1=O [compound 754] | 0.012 | 
59 | Cc1ccnc(Nc2cc3cc[nH]c(=O)c3c(NCCO)n2)c1 [compound 561] |  | 0.501
60 | Cc1ccnc(Nc2cc3ccn(C)c(=O)c3c(NCCCO)n2)c1 [compound 503] |  | 0.084
61 | [2H]C([2H])([2H])n1ccc2cc(Nc3cc(C)c(Cl)cn3)nc(NC3CC3)c2c1=O [compound 548] |  | 0.468
62 | Cn1ccc2cc(Nc3cnccn3)nc(NC(C)(C)CO)c2c1=O [compound 472] |  | 0.155
63 | CCn1ccc2cc(Nc3cnccn3)nc(NC3CCS(=O)(=O)C3)c2c1=O (stereo not drawn) [compound 971] | 0.145 | 
64 | COc1cncc(-c2cc3cc[nH]c(=O)c3c(Nc3ccc(C4CCN(CC(N)=O)CC4)c(C)c3)n2)n1 [compound 134] |  | 0.04
65 | Cc1nc(N)ncc1-c1cc2cc[nH]c(=O)c2c(Nc2ccc([C@H]3CC[C@H](N4CCOCC4)CC3)cc2)n1 [compound 101] |  | 0.668
66 | Cc1ccc(-c2cc3cc[nH]c(=O)c3c(Nc3ccc(C4CNC4)cc3)n2)cn1 [compound 131] |  | 0.111
67 | CCC(O)c1ccnc(Nc2cc3ccn(CCO)c(=O)c3c(NC(C)(C)C)n2)c1 (stereo not drawn) [compound 710] | 0.037 | 
68 | COC[C@H](C)Nc1nc(-c2cnc(N)nc2)cc2cc[nH]c(=O)c12 [compound 448] |  | 0.125
69 | [2H]C([2H])([2H])n1ccc2cc(Nc3cc(C)c(F)cn3)nc(NC(C)(C)CO)c2c1=O [compound 1049] | 0.0899 | 
70 | Nc1nccc(-c2cc3cc[nH]c(=O)c3c(Nc3ccc(N4CCOCC4)cc3)n2)n1 [compound 53] |  | 0.494
71 | COc1nc(-c2cc3cc[nH]c(=O)c3c(Nc3ccc(C4CCN(CCC#N)CC4)c(C)c3)n2)cnc1N [compound 169] |  | 0.029
72 | COc1cncc(-c2cc3cc[nH]c(=O)c3c(Nc3ccc(CCC(=O)N4CCOCC4)cc3)n2)n1 [compound 25] |  | 0.024
73 | CC(C)(C)Nc1nc(Nc2cc(C(C)(C)O)ncn2)cc2ccn(CCS(C)(=O)=O)c(=O)c12 [compound 739] | 0.035 | 
74 | CC(C)(C)Nc1nc(Nc2nccc(O)n2)cc2ccn(CCO)c(=O)c12 [compound 826] | 0.025 | 
75 | CCn1ccc2cc(Nc3nccc(O)n3)nc(N[C@@H]3CC[C@H](O)C3)c2c1=O [compound 958] | 0.022 | 
